Results on 2 molecules are retold here after patent US12194078B2, “Methods and compositions related to combined treatment with anti-inflammatories and synthetic nanocarriers comprising an immunosuppressant” (Cartesian Therapeutics, Inc., priority 2017, dated 2025).

Like-named read-outs stand apart in the source and are kept apart here.

For series [1], the system named is patients with hyperuricemia and gout. Particulars: first 8 weeks, cited from earlier work.
Series [2] has the same test system. Put plainly: Phase 3 febuxostat trial: gout flares, first 8 weeks. The format is in vivo, human. Particulars: first 8 weeks with gout flare prophylaxis. From the text:
(§1) Further comparisons can be made with the primary branded oral uric acid lowering medication, febuxostat. In a phase 3, randomized, double-blind, multi-center trial, the safety and efficacy of febuxostat was studied over 52 weeks (Michael A. Becker, M. D., H. Ralph Schumacher, Jr., M. D., Robert L. Wortmann, M. D., Patricia A. MacDonald, B. S. N., N. P., Denise Eustace, B. A., William A. Palo, M. S., Janet Streit, M. S., and Nancy Joseph-Ridge, M. D. Febuxostat Compared with Allopurinol in Patients with Hyperuricemia and Gout. N Engl J Med 2005; 353:2450-2461Dec. 8, 2005). The comparison period for this analysis included only the first 8 weeks of that study, when gout flare prophylaxis (naproxen or colchicine) was administered. Data points were identified using a graph digitizer for FIG. 1 of the above reference. At a dose of 80 mg/day, 55 out of 255 subjects required treatment for at least one gout flare. This would be the equivalent to a flare frequency of at least 0.22 flares per patient month, and possibly more. At a dose of 120 mg/day, 90 out of 250 subjects required treatment for at least one gout flare, equating to at least a flare frequency of 0.36 flares per patient month, and possibly more.

Series [3] can be described thus: Combination assessment of flare frequency and AUC of mean sUA. It counts as in vivo, human. How it is done: Anti-drug antibodies (ADAs) can be a complication with treatment with soluble therapeutic proteins, such as the possibility of reduced efficacy. In addition, with treatment of subjects with conditions associate with gout, gout flares can increase when efficacy is increased. […] Specifically, a combination assessment of glare frequency as well as the area under the curve of mean sUA (serum uric acid) levels over time was performed. The finding of both improved efficacy and reduced gout flares was surprising with the SEL-212 study drug and anti-inflammatory treatment.
The tabulated data outlining the comparison in flare frequency between the different medications alongside their efficacy in reducing serum uric acid (sUA) is compiled in Table 4.
In addition, a combination assessment of glare frequency as well as the area under the cruve of mean sUA levels over time show both improved efficacy and reduced gout flares. […] Here, with the SEL-212 study drug and anti-inflammatory treatment, both efficacy and gout flare reduction can be achieved.

Series [4] concerns serum uric acid (sUA). Briefly: Phase 3 febuxostat trial: AUC of mean sUA levels over time. The format is in vivo, human. Conditions: data points from graph digitizer.
Excerpt: as §1, with “The comparison period for this analysis included only the first 8 weeks of that study, when gout flare prophylaxis (naproxen or colchicine) was administered.” left out

Series [5] has as its system patients with chronic gout refractory to conventional treatment. Conditions: cited from earlier work.
In series [6] the test system is serum uric acid (sUA). Put plainly: Phase 3 pegloticase trials: AUC of mean sUA levels over time. The format is in vivo, human. More on the design: AUC of mean sUA levels, responders / AUC of mean sUA levels, non-responders: unit not given beside the values. Particulars: for Area Under Curve of Mean sUA Levels Over Time Up to 20 Weeks: combined weighted average for responders and non-responders, digitized, extrapolated to 20 weeks. Here is the method: For comparison, the Phase 3 pegloticase trials (John S. Sundy, MD, PhD; Herbert S. B. Baraf, MD; Robert A. Yood, MD; et al. Efficacy and Tolerability of Pegloticase for the Treatment of Chronic Gout in Patients Refractory to Conventional Treatment: Two Randomized Controlled Trials. JAMA. 2011; 306(7):711-720) were examined to determine the number of flares per month and the area under the curve (AUC) of mean serum uric acid (sUA) levels over time (up to 20 weeks). Subjects were given 0.6 mg of colchicine once or twice daily (or a nonsteroidal anti-inflammatory drug) one week before first infusion, which continued throughout the study. The study also included prophylaxis against infusion related reactions (IRs) before each infusion. The subjects were administered oral fexofenadine (60 mg) the evening before and again immediately before, the infusion, as well as acetaminophen 1000 mg) and IV hydrocortisone (200 mg) immediately before the infusion. Data points were obtained from Table 2, which presents the biweekly/monthly flare per patient month. Data points were also identified using a graph digitizer for FIG. 2 of the aforementioned reference. The data was extrapolated to 20 weeks. The AUC of mean sUA levels over time (up to 20 weeks) and the flares per patient month were calculated using the combined weighted average for responders and non-responders for sUA AUC. […] Similar calculations were performed to obtain the monthly data.

In the next series the test system is uric acid. Conditions: cited from earlier work.
In a further series the test system is ADAs. Conditions: all KRYSTEXXA-treated subjects; cited from earlier work.
[7] abbreviates: monthly dosing, four weeks after first dose.

Turning to `Cc1nc(-c2ccc(OCC(C)C)c(C#N)c2)sc1C(=O)O` [Febuxostat, febuxostat], the “subjects that required treatment for at least one gout flare” value is 55 out of 255 in series [1] (Febuxostat 80 mg/day) and 90 out of 250 in series [1] (Febuxostat 120 mg/day). Also, the “Flares per patient month” value in series [2] (Febuxostat 80 mg/day) is given as 0.22 flares per patient month; in series [2] (Febuxostat 80 mg/day, listed as febuxostat), “at least 0.22 flares per patient month”; in series [2] (Febuxostat 120 mg/day), 0.36 flares per patient month; in series [2] (Febuxostat 120 mg/day, listed as febuxostat), at least 0.36 flares per patient month. The results for the “Flares per patient month * AUC” value in series [3] (Febuxostat 80 mg/day) and in series [3] (Febuxostat 120 mg/day) were 23.83 and 33.62, respectively. For the same molecule, the results for the “Area Under Curve of Mean sUA Levels Over Time Up to 20 Weeks” value in the series on serum uric acid (sUA) [4] (Febuxostat 80 mg/day) and in the series on serum uric acid (sUA) [4] (Febuxostat 120 mg/day) were 108.3 and 93.4, respectively.

For Pegloticase, the “Flares per patient month” value was 0.52 flares per patient month in series [5] (Pegloticase biweekly) and 0.70 flares per patient month in series [5] (Pegloticase monthly). In addition, the results for the “Flares per patient month * AUC” value in series [3] (Pegloticase biweekly) and in series [3] (Pegloticase monthly) were 33.28 and 66.05, respectively. In addition, the “AUC of mean sUA levels, non-responders” value in the series on serum uric acid (sUA) [6] (Pegloticase biweekly group, non-responders, cut to 20 weeks) stood at 102.0. For the same molecule, the “AUC of mean sUA levels, responders” value with serum uric acid (sUA) [6] (Pegloticase biweekly group, responders) is listed as 12.3. In addition, the results for the “Area Under Curve of Mean sUA Levels Over Time Up to 20 Weeks” value with serum uric acid (sUA) [6] (Pegloticase biweekly) and with serum uric acid (sUA) [6] (Pegloticase monthly) were 64.0 and 94.4, respectively. Besides, the “non-responders, share of subjects” value in the series on uric acid (monthly dosing cohorts) is reported as 65%. The “subjects classified as responders (uric acid below 6 mg/dl for 80% of the time at months three and six)” value in the series on uric acid (monthly dosing cohorts) is reported as 35%. Besides, in the series with uric acid (setting [7]), the “mean uric acid levels at four weeks, non-responders” value is “above 6 mg/dl”. Also, the “mean uric acid levels at four weeks, responders” value in the series on uric acid (setting [7]) is reported as “above 4 mg/dl”. Also, the “treated subjects that developed ADAs” value in the series on ADAs is 89%.
